Results taken from patent publication US10654925B2, “Anti-marinobufagenin antibodies and uses thereof” (priority 2018, dated 2020).
Marks after values point to notes of the source that are not given here.

How the values were obtained:
Na^+K^+-ATPase (NKA) = assay: Na^+K^+-ATPase activity (Malachite Green Phosphate Assay); assay type: biochemical, rat; conditions: NKA from rat heart (SLP fraction); Pi read as OD 630 nm; FIG. 4
Method: Na^+K^+-ATPase (NKA) was purified from rat heart. The NKA was collected as the sarcolemmal/particulate (SLP) fraction and frozen.
Na^+K^+-ATPase activity was measured as follows: aliquots of SLP were mixed with Reaction Buffer (200 mM Tris-HCl, pH 7.5, 200 mM NaCL, 30 mM MgCl2, 60 mM KCl, 10 mM EGTA, 100 μg/mL PMSF, 2 μg/mL pepstatin A, and 2 μg/mL aprotinin). Reactions were performed with or without MBG and with or without anti-MBG antibodies (1-100 μg/mL). Ouabain was used as positive control for NKA inhibition. Tubes were prewarmed, and ATP was added. Reactions were stopped and were placed on ice.
Phosphate was assayed using the Malachite Green Phosphate Assay. Phosphate standard or sample was added to each well of a 96-well plate, followed by Reagent A. Reagent B was added, with mixing and incubation. OD was then read at 630 nm in a microplate spectrophotometer.

human CTB cells = assay type: cell-based
[1] = system: pregnant Sprague-Dawley rats; assay: DOCA/saline rat model of pre-eclampsia; assay type: in vivo; conditions: tail cuff; baseline; antibodies 2.2 mg/kg/d i.p. days 16-18 in PDS (DOCA/saline) rats; MBG 7.65 μg/kg/d in normal pregnant rats (NPM); N = 10
[2] = system: pregnant Sprague-Dawley rats; assay: DOCA/saline rat model of pre-eclampsia; assay type: in vivo; conditions: antibodies 2.2 mg/kg/d i.p. days 16-18 in PDS rats
Method: Female Sprague-Dawley rats (200-250 g, Charles River Laboratories) were acclimatized for 1 week, and mated with male Sprague-Dawley rats (275-300 g). Pregnancy was confirmed by the presence of vaginal plugs or by examination of vaginal smears. Each rat was housed separately.
Five groups of rats were studied (n=10 per group): Group 1 (NP): normal pregnant rats; Group 2 (PDS): pregnant rats injected i.p. initially with 12.5 mg of DOCA in a depot form, followed by a weekly i.p. injection of 6.5 mg of DOCA, and whose drinking water is replaced with 0.9% saline; Group 3 (NPM): Normal pregnant rats given daily injections of MBG (7.65 μg per kg body weight per day) once pregnancy was established on day four of the experiment; Group 4 (PDS-3E9): rats administered DOCA and saline as for Group 2, and also given the murine anti-MBG antibody 3E9 (2.2 mg per kg body weight per day) on days 16, 17, and 18 of pregnancy; and Group 5 (PDS-H3L2): rats administered DOCA and saline as for Group 2, and also given the humanized anti-MBG antibody H3L2 (2.2 mg per kg body weight per day) on days 16, 17, and 18 of pregnancy.
Systolic blood pressure (BP) was measured by tail cuff at days 17-19. At least 3 readings are taken after BP has stabilized, and the mean of these values was calculated. The reported BP values are the mean of the daily measurements. At 18-20 days of pregnancy, 24-hour urine was collected in the absence of food to avoid contamination of the measurement of the protein amount in urine by any fallen food particles. Each rat was housed separately in a metabolic cage during this portion of the study. The 24-hour protein excretion was measured and was normalized to creatinine. The rats were sacrificed after the last measurement on days 18-20, and blood samples were taken. The number of fetal pups was counted and examined. The mean number of pups and any developmental or histological abnormalities in the pups were assessed. Statistical analysis was performed using analysis of variance and Tukey's post hoc test. A p value ≤0.05 was considered statistically significant.

[3] = system: PKC-δ in the nucleus of primary rat cardiac fibroblasts; assay: Inhibition of MBG-induced PKC-δ nuclear translocation (Western blot); conditions: MBG at 2 nM
Method: MBG was incubated with an anti-MBG antibody prior to addition to cultured primary rat cardiac fibroblasts. Nuclei were isolated 30 min later and analyzed for amount of PKC-6.

Compound | inhibition of NKA activity (Na^+K^+-ATPase (NKA)) | PCNA expression, MBG compared to vehicle (DMSO) (human CTB cells) | phosphorylation of p38 MAPK, MBG compared to vehicle (DMSO) (human CTB cells) | secretion of P1GF, MBG compared to vehicle (DMSO) (human CTB cells) | secretion of VEGF, MBG compared to vehicle (DMSO) (human CTB cells) | secretion of sEng, MBG compared to vehicle (DMSO) (human CTB cells) | secretion of sFlt1, MBG compared to vehicle (DMSO) (human CTB cells) | Blood Pressure-Initial [1] [mm Hg] | % Malformed Pups ([2]; MBG 7.65 μg/kg/d in NPM rats) | No. Pups ([2]; MBG 7.65 μg/kg/d in NPM rats) | Urine Protein ([2]; normalized to creatinine, 18-20 days of pregnancy, MBG 7.65 μg/kg/d in NPM rats) [mg/24 h] | Blood Pressure-Final ([2]; tail cuff, 17-19 d of gestation, MBG 7.65 μg/kg/d in normal pregnant rats (NPM), N = 10) [mm Hg] | amount of PKC-δ in the nucleus, MBG alone compared to Control (vehicle) [3]
C[C@@H]1O[C@@H](O[C@H]2C[C@@H](O)[C@]3(CO)[C@H]4[C@H](O)C[C@]5(C)[C@@H](C6=CC(=O)OC6)CC[C@]5(O)[C@@H]4CC[C@]3(O)C2)[C@H](O)[C@H](O)[C@H]1O [Ouabain, ouabain] | inhibit the NKA activity significantly | – | – | – | – | – | – | – | – | – | – | – | –
C[C@]12CC[C@H](O)C[C@@]1(O)CC[C@@H]1[C@@H]2CC[C@]2(C)[C@@H](c3ccc(=O)oc3)C[C@H]3O[C@]132 [MBG, marinobufagenin] | inhibit the NKA activity significantly | significantly downregulated | increased | significantly reduced | significantly reduced | significantly increased | significantly increased | 104 ± 4 | 18 * % | 9.5 ± 1.3 | 6.4 ± 1.8 | 137 ± 5 | induced an increase
